Test results taken from patent US8361781B2, “Cell aggregation and encapsulation device and method” (Brown University, priority 2006, dated 2013).

Assays:
Assay type in all cases: cell-based, human
NHFs [1] = assay: NHF aggregation in honeycomb-structured cell aggregation devices; settings: NHFs maintained in Y-27632 solution, day 5; untreated NHFs contracted up and off of pegs within 1 day
Experimental: In this experiment, cell aggregation devices were formed from agarose gels as described above, but agarose gels were micromolded with honeycomb-shaped recesses instead of troughs or a tori. The honeycomb-shaped recesses are essentially overlapping, tori-shaped recesses: There are 13 pegs (1 central, 6 concentric around the central peg and 6 outer pegs at 0°, 60°, 120°, 180°, 240°, 300° and 360°) within a network of recesses […] and with bottoms rounded with 200 μm radii. Time lapse microscopy was again used to monitor self-assembly of the NHF cells alone, the H35 cells alone and 50:50 mixtures of NHF cells and H35 cells as described above. The results are shown in FIG. 8, at time 0 (top row), 10 hours post-seeding (middle row) and 20 hours post-seeding (bottom row) with the aggregated NHF cells in column A, the aggregated H35 cells in column B and the aggregated 1:1 mixture of NHF and H35 cells in column C. The aggregated NHF cells quickly thinned, became taught and popped off the outer pegs of the honeycomb shaped substrate. Once freed from the substrate, the honeycomb-shaped aggregates of NHF cells contracted in a uniform manner but maintained its shape. The aggregated H35 cells thinned more slowly, maintaining contact with the outer pegs and staying within the molds. […]

NHF cells = assay: Rod length change kinetics of NHF aggregates in 2.2 mm trough features; settings: NHF cells treated with 50 μM and 200 μM Y-27632, 2.2 mm troughs, FIG. 10
From the text: Micro-molded, non-adhesive, cell aggregation devices, each having a plurality of cell aggregation recesses in the shape of either troughs or tori were made following the method described in Example 1. Agarose was employed as the hydrogel material and the cell aggregation recess features were as follows. Troughs were 400 μm wide with bottoms rounded with 200 μm radii. There were 21 rows of troughs of increasing length per gel. Each row had 11 troughs, two of which were 400 μm long, then one each of 600 μm through 1800 μm increasing at 200 μm lengths, then two 2200 μm troughs. The 2200 μm troughs were used for all experiments except those for FIG. 9c, which presents data from all trough lengths. […] A z-stack of images from the 4× objective with 10-50 μm between focal planes was collected at each time point using custom-designed Openlab 4.0.2 automations and images were analyzed using Volocity 3.1 (Improvision). […] The core circumference of tori was measured as a continuous circumferential line located at the estimated midpoint of the perpendicular width of the toroid. […] Next, aggregation devices with trough features 2.2 mm in length were made as described in previous examples and seeded with NHF cells, NHF cells in serum-free medium, NHF cells treated with 50 μM of Y-27632 and NHF cells treated with 200 μM of Y-27632 and the lengths of resulting rod shaped aggregates were measured. […]

NHFs [2] = assay: Toroid stability of NHFs in micro-molded agarose toroidal aggregation devices
From the text: Micro-molded, non-adhesive, cell aggregation devices, each having a plurality of cell aggregation recesses in the shape of either troughs or tori were made following the method described in Example 1. Agarose was employed as the hydrogel material and the cell aggregation recess features were as follows. Troughs were 400 μm wide with bottoms rounded with 200 μm radii. There were 21 rows of troughs of increasing length per gel. Each row had 11 troughs, two of which were 400 μm long, then one each of 600 μm through 1800 μm increasing at 200 μm lengths, then two 2200 μm troughs. The 2200 μm troughs were used for all experiments except those for FIG. 9c, which presents data from all trough lengths. […] A z-stack of images from the 4× objective with 10-50 μm between focal planes was collected at each time point using custom-designed Openlab 4.0.2 automations and images were analyzed using Volocity 3.1 (Improvision). […] The core circumference of tori was measured as a continuous circumferential line located at the estimated midpoint of the perpendicular width of the toroid. Micro-molded agarose toroidal aggregation devices (n=208) made as described in Example 9 were seeded with untreated NHFs and NHFs treated with 100 μM of the cell contraction inhibitor Y-27632 (Calbiochem (EMD Biosciences, Inc.), San Diego, Calif.) and the number of stable toroids with patent centers was measured over time. […]

NHFs [3] = assay: Viability staining of treated NHF honeycombs; settings: NHF honeycombs maintained in Y-27632 solution, day 5
Experimental: NHF cells alone, H35 cells alone, and 50:50 mixtures of NHF and H35 cells were seeded into the trough aggregation devices and the tori aggregation devices as described in Example 2 and allowed to aggregate. Briefly, NHF cells derived from neonatal foreskins and H35 rat hepatoma cells were expanded in DMEM supplemented with 10% fetal bovine serum (FBS) and 1% penicillin/streptomycin solution. NHF cells were incubated in a 10% CO2 atmosphere and H35 cells were incubated in 5% CO2. The mixture experiments were a 50:50 mix of both cell types and were maintained in a 5% CO2 atmosphere. The cells were stained with fluorescent dyes (NHF cells with CellTracker Red CMTPX and H35 cells with CellTracker Green CMFDA from Invitrogen) to allow their aggregation in the mixed populations to be followed and their aggregated position visualized. Cells used in experiments were between passage 3 and passage 9. Cell viability was determined using the LIVE/DEAD Viability/Cytotoxicity Kit (Invitrogen) in accordance with the manufacturer's instructions.
Lastly, NHFs were seeded onto honeycomb-structured cell aggregation devices made as described in Example 9B and maintained in Y-27632 solution.

NHFs [4] = assay: Rod aggregation kinetics in 2.2 mm troughs after removal of drug (time-lapse); settings: 100 μM Y-27632 initially, removed at 1.5 hrs and replaced with normal medium, FIG. 11
Experimental: Excess medium was aspirated from the wells and 200 μL of a single cell suspension was pipetted into the aggregation recess of each gel. Medium was added to the wells after a 1.5 hour incubation period wherein cells settled into the aggregation recesses and commenced the self-assembly process. Medium was exchanged every other day. […] A z-stack of images from the 4× objective with 10-50 μm between focal planes was collected at each time point using custom-designed Openlab 4.0.2 automations and images were analyzed using Volocity 3.1 (Improvision). Bright-field and fluorescent images were obtained using an Olympus IX70 microscope equipped with an AxioCam MRc digital camera. For the time-lapse experiments, medium was carefully added 20-30 minutes post seeding, before the devices were transferred to the time lapse microscope. Measurements of morphological changes were performed with ImageJ data analysis software. The length of a rod was the length of a line drawn from end to end of the structure (long-axis length). The core circumference of tori was measured as a continuous circumferential line located at the estimated midpoint of the perpendicular width of the toroid. Gels with trough features 2.2 mm in length were then seeded with NHFs or with NHFs treated initially with 100 μM Y-27632 and imaged every 10 minutes. At 1.5 hrs, the Y-27632 solution was removed and replaced with normal medium. […]

C[C@@H](N)[C@H]1CC[C@H](C(=O)Nc2ccncc2)CC1 [Y-27632]
maintenance of honeycomb structure (NHFs [1]): remained intact in the honeycomb-shaped recesses at day 5 | effect on length change kinetics of rod shaped aggregates (NHF cells): dramatically slowed length change kinetics in rods | treated NHFs still having patent centers (stable toroids) (NHFs [2]; 100 μM Y-27632, day 1, n=104, all untreated NHFs had progressed to spheroids): 90% | treated NHFs still having patent centers (stable toroids) (NHFs [2]; 100 μM Y-27632, day 2, n=104): 5% | cell viability (viability staining) (NHFs [3]): majority of the cells were living at day 5 | aggregation kinetics after removal of the drug (NHFs [4]): progressing with similar kinetics to those of untreated NHFs
